Among the data in PubChem BioAssay (NCI) are TGI and GI50 values, retold here.

Values joined by “and” are separate entries in the source; they are usually repeats but may differ in a detail not shown here. Equal entries are not always repeated.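 1) Cells in 96-well plates. 2) Compound, 48 h, 5 concentrations. 3) Linear interpolation between surrounding doses. 4) Unreached endpoint = highest concentration. The concentration for 50% growth inhibition is given as GI50. Definition used: TGI = concentration required for complete inhibition of growth.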

Test in all cases: NCI tumour cell line growth inhibition, 48 h
Assay [1] relates to DMS 114 small cell lung.
Assay [2] deals with LXFL 529 NSCLC.
The subject of assay [3] is XF 498 CNS.
For assay [4], the system named is HOP-18 NSCLC.
Assay [5] deals with RXF-631 renal.
Assay [6] relates to HS 578T breast.
In assay [7] the test system is MDA-N.
Assay [8] relates to MCF7 breast.
In assay [9] the test system is MDA-MB-435.
For assay [10], the system named is SN12K1 renal.
For assay [11], the system named is P388 leukemia.
Assay [12] relates to P388/ADR leukemia.

For `CCOC(=O)/C=C1\Nc2ccccc2C(c2ccccc2)=NC1OC(C)=O` (stereo not given), the TGI in assay [1] and in assay [2] was above 100 µM in each case.

Regarding `CC1=NN(C(=O)CC(=O)Nc2cccc(Cl)c2)C(=O)C1N=Nc1ccc(S(N)(=O)=O)cc1` (stereo not given), the TGI in assay [3], in assay [4], in assay [1] and in [2] was above 100 µM throughout.

`COC(=O)/C(=N\NC(=O)c1ccccc1O)C(C#N)c1ccc(Cl)cc1` (stereo not given): the TGI in assay [4], in assay [1], in [2] and in [5] was above 100 µM in each case.

With `C/C(=N\NS(=O)(=O)c1ccc(C)cc1)c1ccc[n+]([O-])n1`, the TGI in [3], in assay [4], in assay [1] and in assay [2] was above 100 µM in each case.

Consider `COc1cc2ccn3c4cc(OC)c(OC)cc4cc3c2cc1OC`, for which the TGI in assay [3], in assay [1] and in assay [2] was above 100 µM throughout.

For `c1ccc2c(c1)CCCc1cc3ccccc3nc1-2`, the TGI in assay [3] is above 100 µM; in assay [4], above 100 µM; in assay [1], 75.1 µM; in assay [2] it was above 100 µM.

For `N#Cc1c2c(c(N=[N+]=[N-])n3c1nc1ccccc13)CCCC2`, the values for the TGI in assay [3] and in assay [1] were 3.13 µM and 4.37 µM, respectively.

For the compound `O=c1c2ccccc2nc(-c2ccccc2)n1NCC1(O)OCC(O)C(O)C1O` (stereo not given), the TGI in [4], in [1] and in [2] was above 100 µM throughout.

Regarding `Brc1ccc2c(c1)C1(c3cc(Br)ccc3-2)c2cc(Br)ccc2-c2ccc(Br)cc21`, the TGI in assay [3], in [4], in assay [1], in assay [2] and in assay [5] was above 100 µM throughout.

Turning to `O=C1c2c(O)cccc2C(C(=O)CCCCC(=O)C2c3cccc(O)c3C(=O)c3c(O)cccc32)c2cccc(O)c21`, the TGI in assay [6] was 0.951 µM; in [3], 1.18 µM; in assay [7] it was 3.77 µM; in assay [4], 1.79 µM and 1.88 µM; in assay [8] it was 6.18 µM; in assay [1] it was 1.48 µM and 1.83 µM. In addition, the TGI in [9] is 3.01 µM; in assay [2], 1.01 µM and 1.95 µM; in assay [5] it was 3.61 µM and 2.81 µM. For the same compound, the GI50 in assay [4] is 0.996 µM; in assay [1] it was 1.01 µM; in [2] it was 1.04 µM; in assay [5], 1.36 µM.

Turning to `Cc1cc(N(CCC#N)S(=O)(=O)c2ccccc2)ccc1C=O`, the TGI in [4], in assay [1], in [2] and in assay [5] was above 100 µM in each case.

For the compound `O=C(CCCCCCCCCCc1ccccc1)c1c(O)cccc1O`, the TGI in assay [3] was found to be 40.1 µM; in assay [4], 67.5 µM; in assay [1], 45.3 µM; in assay [2], 34.7 µM; in assay [5] it was 85.4 µM.

As for `CC(C)c1ccc(/C=C(\NC(=O)c2ccccc2)c2nc3ccccc3[nH]2)cc1`, the TGI is above 100 µM in assay [3]; above 100 µM in assay [4]; 92.8 µM in [1]; above 100 µM in assay [2]; above 100 µM in [5].

For the compound `CC(=O)NC1C(OCc2ccccc2)OC(COC(=O)CCCCCCCCCCNC(=O)c2cccc3c(=O)c4ccccc4[nH]c23)C(O)C1OC(C)C(=O)NC(C)C(=O)NC(CCC(N)=O)C(N)=O` (stereo not given), the TGI in assay [3] is above 100 µM; in [4], above 100 µM; in assay [1], above 100 µM; in assay [2], above 100 µM; in assay [5], 43.8 µM.

For `S=C(Nc1ccccc1)Nc1[nH]c(=S)sc1-c1nc2ccccc2[nH]1`, the TGI in [4], in [2] and in assay [5] was above 100 µM each time.

With `CC(C)OP(=O)(OC(C)C)C(N(C)C)P(=O)(OC(C)C)OC(C)C.[Cl][Sn]([Cl])([Cl])[c]1ccccc1`, in assay [4], the GI50 is above 100 µM and the TGI is above 100 µM. Besides, in assay [1], the GI50 is 3.68 µM and the TGI worked out at 23.1 µM.

For the compound `CC1CCC(O)C(C(O)CC2CC(=O)N(C)C(=O)C2)C1` (stereo not given), the TGI in assay [3], in [4], in assay [1], in [2] and in assay [5] was above 100 µM in each case.

Regarding `Cc1nnc2n1N=C(CC(=O)c1ccc(O)cc1O)CN2N`, the TGI is 40 µM in assay [1], above 100 µM in assay [2] and above 100 µM in assay [5].

As for `O=C1OCC(C(=O)c2cccc(O)c2)C1=O` (stereo not given), the TGI in assay [4], in assay [1], in assay [2] and in [5] was above 100 µM in each case.

Turning to `O=C(O)c1cc(Cl)cc(NC(=O)C(Cl)Cl)c1Cl`, the TGI in [3], in assay [4], in assay [1], in assay [2] and in assay [5] was above 100 µM each time.

Regarding `COC(=O)C(CC=O)C(=O)C(=O)Nc1cccc(C(F)(F)F)c1` (stereo not given), the TGI in [3], in assay [4], in assay [1], in [2] and in assay [5] was above 100 µM each time.

Regarding `COc1ccc(S(=O)(=O)N/N=C/C(=O)O)cc1`, the TGI in assay [6] is 1040 µM; in [3], above 1080 µM; in [7], above 1200 µM; in assay [10], above 1250 µM; in [4] it was above 1250 µM; in [8], above 1210 µM. Also, the TGI was 1230 µM in assay [1], 787 µM in [11], above 1250 µM in assay [9] and 721 µM in assay [12].

As to `c1ccc(SCCCC(Sc2ccccc2)Sc2ccccc2)cc1`, the TGI in [3], in assay [1] and in [2] was above 100 µM in each case.

Take `Clc1ccc2c(Cl)ncnc2c1`: the TGI in assay [3] was above 100 µM.

As to `CC(=O)[CH-]C(=O)c1ccccc1.CC(=O)[CH-]C(=O)c1ccccc1.[O]=[U+2]=[O]`, in [2], the GI50 was 32.7 µM and the TGI was above 100 µM.

`COC(=O)C12CC(C3CC31)C1CC12` (stereo not given): the TGI in assay [4], in [1], in assay [2] and in [5] was above 100 µM each time.

As to `CC(C)OP(=O)(CP(=O)(OC(C)C)OC(C)C)OC(C)C.[CH3][Sn]([Br])([Br])[Br]`, the GI50 in assay [4], in [1] and in assay [5] was above 100 µM each time. For the same compound, the TGI in [4], in [1] and in assay [5] was above 100 µM throughout.

In the case of `CC1OC(=O)N(CCCC=C2SCCCS2)C1=O` (stereo not given), the TGI in assay [3], in [4], in assay [1] and in assay [2] was above 100 µM each time.

Turning to `COC(=O)/C(C#N)=C1\N=NNN1CCCN1CCOCC1`, the TGI in [4], in assay [1] and in assay [2] was above 100 µM in each case.

In the case of `O=c1[nH]c(=O)n(C2CC(O)C(CO)O2)cc1C#Cc1ccc(C(F)(F)F)cc1` (stereo not given), the TGI in assay [3], in assay [4], in assay [1], in assay [2] and in [5] was above 100 µM throughout.

Turning to `CN1CC2(CCCCC2)C(O)C12C=CCCC2` (stereo not given), the TGI in assay [3], in assay [1] and in assay [2] was above 100 µM throughout.

Take `CCOC(=O)CCC1(C(=O)OC)CCCC1=O` (stereo not given): the TGI in assay [3], in assay [4], in [1] and in assay [2] was above 100 µM each time.

With `CN1CCCC1c1cccnc1.O=C(O)c1ccccc1O.O=C([O-])c1ccccc1[OH2+].O=C([O-])c1ccccc1[OH2+].O=C([O-])c1ccccc1[OH2+].[Mn+2]` (stereo not given), the GI50 is 2.43 µM in assay [6], above 100 µM in [7], 50 µM in [8] and above 100 µM in [9]. Further, the TGI in [6], in assay [7], in assay [8] and in assay [9] was above 100 µM each time.

`CC1=C(C#N)C(N)=C2C(C)=C(C#N)C(N)=C12`: the TGI in assay [3], in [1] and in [2] was above 100 µM in each case.

As for `CCC1OCCN1C(C)C` (stereo not given), the TGI in [1] and in assay [2] was above 100 µM each time.
